The values that follow come from PubChem BioAssay AID180 (DTP/NCI, 2004).

Structures are written as SMILES. Where “and” joins values, the source holds several entries; their conditions need not be identical. Identical values can stand only once.

The assay concerns BDF1 mice, Adenocarcinoma 755 s.c., tumor weight T/C. The assay can be described thus: NCI In Vivo Anticancer Drug Screen. Data for tumor model Adenocarcinoma 755 (subcutaneous) in B6D2F1 (BDF1) mice. The settings on record: endpoint: mean tumor weight, higher = larger tumour. In short, it runs like this: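 Tumor-bearing mice receive test compound while controls get vehicle alone. Antitumor effect is scored from survival or tumor dimensions as a T/C quotient.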

The mark [1] stands for this setting: dose: 50.0 mg/kg/injection, schedule: Q01DX011 (ip), vehicle: saline.

For the compound `CCCCn1cnc2c(SSc3ncnc4c3ncn4CCCC)ncnc21`, the T/C is, setting by setting: (dose: 0.5 mg/kg/injection, schedule: Q01DX011 (ip), vehicle: carboxymethylcellulose (CMC)) 94 % of control; (dose: 1.0 mg/kg/injection, schedule: Q01DX011 (ip), vehicle: carboxymethylcellulose (CMC)) 104 % of control; (dose: 2.0 mg/kg/injection, schedule: Q01DX011 (ip), vehicle: carboxymethylcellulose (CMC)) 101 % of control; (dose: 4.0 mg/kg/injection, schedule: Q01DX011 (ip), vehicle: carboxymethylcellulose (CMC)) 77 % of control; (dose: 7.5 mg/kg/injection, schedule: Q01DX011 (ip), vehicle: other) 32 % of control; (dose: 8.0 mg/kg/injection, schedule: Q01DX011 (ip), vehicle: carboxymethylcellulose (CMC)) 19 % of control. For the same compound, the T/C is, setting by setting: (dose: 15.0 mg/kg/injection, schedule: Q01DX011 (ip), vehicle: other) 23 % of control; (dose: 16.0 mg/kg/injection, schedule: Q01DX011 (ip), vehicle: carboxymethylcellulose (CMC)) 13 % of control; (dose: 30.0 mg/kg/injection, schedule: Q01DX011 (ip), vehicle: other) 1 % of control; (dose: 31.0 mg/kg/injection, schedule: Q01DX011 (ip), vehicle: carboxymethylcellulose (CMC)) 6 % of control; (dose: 62.0 mg/kg/injection, schedule: Q01DX011 (ip), vehicle: carboxymethylcellulose (CMC)) 5 % of control.
Take `CN(C)S(=O)(=O)c1ncnc2nc[nH]c12`: the T/C runs as follows: (dose: 32.0 mg/kg/injection, schedule: Q01DX011 (ip), vehicle: other) 26 % of control; (dose: 128.0 mg/kg/injection, schedule: Q01DX011 (ip), vehicle: other) 7 % of control; (dose: 256.0 mg/kg/injection, schedule: Q01DX011 (ip), vehicle: other) 6 % of control.
As for `O=CNC(Cc1cccc(N(CCCl)CCCl)c1)C(=O)O` (configuration not stated), the T/C is 96 % of control (dose: 0.25 mg/kg/injection, schedule: Q01DX011 (ip), vehicle: methylcellulose (MC)); 59 % of control (dose: 0.5 mg/kg/injection, schedule: Q01DX011 (ip), vehicle: methylcellulose (MC)); 57 % of control (dose: 1.0 mg/kg/injection, schedule: Q01DX011 (ip), vehicle: methylcellulose (MC)); 36 % of control (dose: 1.1 mg/kg/injection, schedule: Q01DX011 (ip), vehicle: methylcellulose (MC)); 41 % of control (dose: 2.0 mg/kg/injection, schedule: Q01DX011 (ip), vehicle: methylcellulose (MC)); 22 % of control (dose: 2.25 mg/kg/injection, schedule: Q01DX011 (ip), vehicle: methylcellulose (MC)). In addition, the T/C (dose: 4.5 mg/kg/injection, schedule: Q01DX011 (ip), vehicle: methylcellulose (MC)) is 4 % of control.
As to `Nc1c(Br)cc2c(c1Br)Cc1cc([N+](=O)[O-])ccc1-2`, the T/C runs as follows: (dose: 1.5 mg/kg/injection, schedule: Q01DX011 (ip), vehicle: carboxymethylcellulose (CMC)) 85 % of control; (dose: 3.0 mg/kg/injection, schedule: Q01DX011 (ip), vehicle: carboxymethylcellulose (CMC)) 63 % of control; (dose: 6.0 mg/kg/injection, schedule: Q01DX011 (ip), vehicle: carboxymethylcellulose (CMC)) 43 % of control; (dose: 6.0 mg/kg/injection, schedule: Q01DX011 (ip), vehicle: other) 94 % of control; (dose: 6.25 mg/kg/injection, schedule: Q01DX011 (ip), vehicle: saline) 109 % of control; (dose: 12.0 mg/kg/injection, schedule: Q01DX011 (ip), vehicle: carboxymethylcellulose (CMC)) 22 % of control. Also, the T/C is, setting by setting: (dose: 12.5 mg/kg/injection, schedule: Q01DX011 (ip), vehicle: saline) 69 % of control; (dose: 25.0 mg/kg/injection, schedule: Q01DX011 (ip), vehicle: carboxymethylcellulose (CMC)) 7 % of control; (dose: 25.0 mg/kg/injection, schedule: Q01DX011 (ip), vehicle: saline) 82 % of control; (dose: 27.5 mg/kg/injection, schedule: Q01DX011 (ip), vehicle: saline) 46 % of control; (dose: 50.0 mg/kg/injection, schedule: Q01DX011 (ip), vehicle: carboxymethylcellulose (CMC)) 12 % of control; under setting [1], 57 % of control. The T/C by setting is: (dose: 50.0 mg/kg/injection, schedule: Q01DX011 (oral), vehicle: saline) 90 % of control; (dose: 55.0 mg/kg/injection, schedule: Q01DX011 (ip), vehicle: saline) 29 % of control; (dose: 100.0 mg/kg/injection, schedule: Q01DX011 (ip), vehicle: carboxymethylcellulose (CMC)) 19 % of control; (dose: 100.0 mg/kg/injection, schedule: Q01DX011 (ip), vehicle: saline) 63 % of control; (dose: 100.0 mg/kg/injection, schedule: Q01DX011 (oral), vehicle: saline) 72 % of control; (dose: 110.0 mg/kg/injection, schedule: Q01DX011 (ip), vehicle: other) 17 % of control and 30 % of control. Also, the T/C is, setting by setting: (dose: 110.0 mg/kg/injection, schedule: Q01DX011 (ip), vehicle: saline) 21 % of control and 38 % of control; (dose: 200.0 mg/kg/injection, schedule: Q01DX011 (ip), vehicle: carboxymethylcellulose (CMC)) 8 % of control; (dose: 200.0 mg/kg/injection, schedule: Q01DX011 (ip), vehicle: saline) 46 % of control; (dose: 200.0 mg/kg/injection, schedule: Q01DX011 (oral), vehicle: saline) 91 % of control; (dose: 225.0 mg/kg/injection, schedule: Q01DX011 (ip), vehicle: other) 17 % of control and 32 % of control; (dose: 400.0 mg/kg/injection, schedule: Q01DX011 (oral), vehicle: saline) 117 % of control. Moreover, the T/C reads like this: (dose: 450.0 mg/kg/injection, schedule: Q01DX011 (ip), vehicle: other) 6 % of control; (dose: 800.0 mg/kg/injection, schedule: Q01DX011 (oral), vehicle: saline) 66 % of control; (dose: 900.0 mg/kg/injection, schedule: Q01DX011 (ip), vehicle: other) 15 % of control.
Take `O=NN(CCCl)C(=O)NCCCl`: the T/C runs as follows: (dose: 0.45 mg/kg/injection, schedule: Q01DX011 (ip), vehicle: carboxymethylcellulose (CMC)) 63 % of control and 66 % of control and 75 % of control; (dose: 0.9 mg/kg/injection, schedule: Q01DX011 (ip), vehicle: carboxymethylcellulose (CMC)) 90 % of control and 98 % of control and 86 % of control; (dose: 1.62 mg/kg/injection, schedule: Q01DX011 (ip), vehicle: saline) 93 % of control and 99 % of control; (dose: 1.75 mg/kg/injection, schedule: Q01DX011 (ip), vehicle: carboxymethylcellulose (CMC)) 47 % of control; (dose: 3.25 mg/kg/injection, schedule: Q01DX011 (ip), vehicle: saline) 79 % of control and 84 % of control; (dose: 3.5 mg/kg/injection, schedule: Q01DX011 (ip), vehicle: carboxymethylcellulose (CMC)) 36 % of control and 40 % of control (2×). The T/C is 32 % of control and 34 % of control (dose: 6.5 mg/kg/injection, schedule: Q01DX011 (ip), vehicle: carboxymethylcellulose (CMC)); 59 % of control and 78 % of control (dose: 6.5 mg/kg/injection, schedule: Q01DX011 (ip), vehicle: saline); 18 % of control (2×) and 40 % of control (dose: 7.0 mg/kg/injection, schedule: Q01DX011 (ip), vehicle: carboxymethylcellulose (CMC)); 13 % of control (dose: 13.0 mg/kg/injection, schedule: Q01DX011 (ip), vehicle: carboxymethylcellulose (CMC)).
For the compound `C[C@]12CCC(=O)C=C1CC[C@@H]1[C@@H]2[C@@H](O)C[C@@]2(C)[C@H]1CC[C@]2(O)C(=O)CF`, the T/C (dose: 50.0 mg/kg/injection, schedule: Q01DX011 (sc), vehicle: steriod suspending solution) was 21 % of control; the T/C (dose: 100.0 mg/kg/injection, schedule: Q01DX011 (sc), vehicle: steriod suspending solution) is 16 % of control; the T/C (dose: 200.0 mg/kg/injection, schedule: Q01DX011 (sc), vehicle: steriod suspending solution) is 6 % of control and 10 % of control; the T/C (dose: 400.0 mg/kg/injection, schedule: Q01DX011 (sc), vehicle: steriod suspending solution) is 7 % of control and 9 % of control; the T/C (dose: 600.0 mg/kg/injection, schedule: Q01DX011 (sc), vehicle: steriod suspending solution) was 9 % of control.
`N#CCCn1cnc2c(Cl)ncnc21`: the T/C runs as follows: (dose: 50.0 mg/kg/injection, schedule: Q01DX011 (ip), vehicle: other) 85 % of control; (dose: 100.0 mg/kg/injection, schedule: Q01DX011 (ip), vehicle: other) 157 % of control; (dose: 400.0 mg/kg/injection, schedule: Q01DX011 (ip), vehicle: other) 98 % of control; (dose: 600.0 mg/kg/injection, schedule: Q01DX011 (ip), vehicle: other) 63 % of control; (dose: 800.0 mg/kg/injection, schedule: Q01DX011 (ip), vehicle: other) 94 % of control.
Consider `CN(C)[C@@H]1C(=O)C(C(=O)NCNC2(C(=O)O)CCCC2)=C(O)[C@@]2(O)C(=O)C3=C(O)c4c(O)cccc4[C@@](C)(O)[C@H]3C[C@@H]12`, for which the T/C by setting is: under setting [1], 77 % of control; (dose: 75.0 mg/kg/injection, schedule: Q01DX011 (ip), vehicle: saline) 65 % of control; (dose: 125.0 mg/kg/injection, schedule: Q01DX011 (ip), vehicle: saline) 41 % of control; (dose: 250.0 mg/kg/injection, schedule: Q01DX011 (ip), vehicle: saline) 1 % of control.

The term T/C denotes the result in the treated group divided by that in the control group, in per cent.
